Source: ChEMBL document CHEMBL1201862, “PubChem BioAssay data set” (2004)
Calls of active or inactive are those of the source.

Experiments:
[1] = target: NS3 (Hepatitis C virus, UniProt A3EZJ3); assay: HCV NS3 helicase inhibitor potency, dose response, biochemical, fluorescence polarization, ChemBridge library (AID 743264)
[2] = NIH/3T3 fibroblast cytotoxicity, dose response, cytotoxicity control, cell-based, plate reader, dry powder, set 2 (AID 652280); assay type: functional; settings: NIH3T3
[3] = T. cruzi growth inhibition in host cells, dose response, cell-based, plate reader, dry powder, set 2 (AID 652275); assay type: functional
[4] = A Cell-Based Confirmatory Screen for Compounds that Inhibit VEEV, TC-83 (8).; assay type: functional
[5] = A Cell-Based Confirmatory Screen for Compounds that Inhibit VEEV, TC-83 (7).; assay type: functional
[6] = HepG2 cell cytotoxicity, dose response, cytotoxicity control, ATP luminescence, cherry-pick, activator set 2 (AID 1053143); assay type: functional, cell-based
[7] = inhibitors of SNCA 5'UTR-driven reporter translation, confirmation, H4 neuroglioma cells, luminescence (AID 1988); assay type: functional, cell-based
[8] = HepG2 cell cytotoxicity, dose response, cytotoxicity control for Shn3 inhibitor project, CellTiter-Glo, cherry-picked (AID 624134); assay type: functional, cell-based
[9] = Shn3 3'UTR reporter inhibitors, dose response, cell-based, Clone20 osteoblasts, firefly luciferase, cherry-picked (AID 624132); assay type: functional;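 further: firefly luciferase luminescence from reporter carrying the Shn3 3'UTR in osteoblasts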
[10] = inhibitors of firefly luciferase expression or activity, dose response, H4 neuroglioma cells, luminescence (AID 1990); assay type: functional, cell-based
[11] = reduction of Shn3 3'UTR firefly luciferase signal, dose response, Schnurri-3 inhibitor project, cell-based, Clone20 osteoblasts, cherry-pick, set 2 (AID 720490); assay type: functional;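 further: actives lower the luminescence signal as inhibitors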
[12] = control 3'UTR Renilla luciferase suppression, dose response, counter-screen for Shn3 inhibitor project, cell-based, Clone20-Shn3RL, cherry-picked (AID 624133); assay type: functional
[13] = inhibitors of control Renilla luciferase reporter, dose response, counter-screen for Shn3 3'UTR targeting project, Clone20-Shn3RL cells, dual-Glo, cherry-pick, set 2 (AID 720724); assay type: functional, cell-based; settings: Dual-Go Shn3RL
[14] = reduction of endogenous Shn3 mRNA, dose response, qPCR, Clone20 cells, cherry-pick (AID 743415); assay type: functional, cell-based
[15] = target: T1, High affinity choline transporter 1 (Homo sapiens, UniProt Q9GZV3); assay: CHT choline uptake inhibitors, dose response, cell-based, HEK-293 hCHT, [3H]-choline uptake (AID 652177); assay type: functional
T1 sequence (Q9GZV3 whole entry): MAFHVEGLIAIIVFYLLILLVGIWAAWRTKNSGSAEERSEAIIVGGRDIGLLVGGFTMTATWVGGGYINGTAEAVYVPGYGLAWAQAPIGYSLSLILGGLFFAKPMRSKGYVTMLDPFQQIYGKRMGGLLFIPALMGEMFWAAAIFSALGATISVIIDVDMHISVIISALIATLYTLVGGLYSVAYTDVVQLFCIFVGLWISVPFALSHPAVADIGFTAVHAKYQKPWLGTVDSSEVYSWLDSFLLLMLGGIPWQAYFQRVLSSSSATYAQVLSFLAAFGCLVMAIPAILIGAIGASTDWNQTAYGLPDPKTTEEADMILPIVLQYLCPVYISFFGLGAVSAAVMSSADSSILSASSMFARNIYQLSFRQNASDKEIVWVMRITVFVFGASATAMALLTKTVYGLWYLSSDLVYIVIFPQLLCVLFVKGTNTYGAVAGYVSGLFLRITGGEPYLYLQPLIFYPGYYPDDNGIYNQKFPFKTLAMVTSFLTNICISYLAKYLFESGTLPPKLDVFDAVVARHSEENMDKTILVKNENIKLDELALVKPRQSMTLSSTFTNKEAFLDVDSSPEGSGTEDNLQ

[16] = inhibitors of clade B AD8 Env fusion, dose response, cell-based, cherry-pick (AID 652062); assay type: functional;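 further: luciferase signal from cell-cell fusion driven by HIV-1 clade B AD8 Env; potency is for inhibitors of fusion seen as a drop in luminescence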
[17] = HIV Env cell-cell fusion inhibitors, dose response, HIV entry, plate reader, dry powder (AID 687023); assay type: functional, cell-based
[18] = inhibitors of HIV Env-driven cell fusion, dose response, cherry-pick (AID 652057); assay type: functional, cell-based
[19] = Late stage assay provider results from the probe development effort to identify inhibitors of the Plasmodium falciparum M18 Aspartyl Aminopeptidase (M18AAP): radiolabel-based cell-based dose response assay to identify compounds that inhibit P. falciparum growth in RBCs, Set 2..; assay type: functional

Chain of NS3 (A3EZJ3 whole entry): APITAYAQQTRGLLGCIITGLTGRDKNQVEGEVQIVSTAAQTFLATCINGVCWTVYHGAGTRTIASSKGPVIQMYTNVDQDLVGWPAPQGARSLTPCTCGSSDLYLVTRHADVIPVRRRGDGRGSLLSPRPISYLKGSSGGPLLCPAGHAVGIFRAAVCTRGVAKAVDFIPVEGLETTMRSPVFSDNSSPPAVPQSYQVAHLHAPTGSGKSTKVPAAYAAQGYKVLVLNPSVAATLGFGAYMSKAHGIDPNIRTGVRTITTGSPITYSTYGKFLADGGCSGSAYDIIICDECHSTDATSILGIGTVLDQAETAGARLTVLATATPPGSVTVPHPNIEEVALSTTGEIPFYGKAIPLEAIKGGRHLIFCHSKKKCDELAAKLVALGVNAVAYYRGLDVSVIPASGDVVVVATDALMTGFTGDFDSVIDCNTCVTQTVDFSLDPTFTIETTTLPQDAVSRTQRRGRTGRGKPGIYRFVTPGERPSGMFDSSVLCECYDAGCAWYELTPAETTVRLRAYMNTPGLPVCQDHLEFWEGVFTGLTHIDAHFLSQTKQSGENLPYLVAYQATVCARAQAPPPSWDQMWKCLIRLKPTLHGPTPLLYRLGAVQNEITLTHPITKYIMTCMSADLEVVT

## O=C1NC(=S)N(c2ccccc2)C(=O)/C1=C/c1ccc(-c2ccc(C(=O)O)c(Cl)c2)o1
[1]
  IC50: 96.9 µM (active)

## Cc1cccc(-c2ccc([C@H]3[C@H](CO)N4CCCCN(Cc5cccnc5)C[C@@H]34)cc2)c1
[2]
  AC50: 17.9 µM (active)
[3]
  AC50: 0.259 µM (active)

## O=c1c2cc([N+](=O)[O-])ccc2nc(CN2CCCNCC2)n1-c1ccccc1
[4]
  IC50: 0.94 µM (active)
[5]
  IC50: 2.48 µM (inconclusive)

## O=C(Nc1ncccc1O)c1ccc(Oc2ccccc2)cc1
[6]
  AC50: 26 µM (active)

## COc1ccc(NC(=O)c2nc(S(=O)(=O)Cc3cccc(C)c3)ncc2Cl)c(OC)c1
[7]
  EC50: 36.7 µM (active)
[8]
  AC50: > 70 µM (inactive)
[9]
  AC50: 0.299 µM (active)
[10]
  EC50: 19.2 µM (active)
[11]
  AC50: 1.48 µM (active)
[12]
  AC50: 8.06 µM (active)
[13]
  AC50: 3.35 µM (active)
[14]
  AC50: 10 µM (active)

## COc1ccc(C(=O)NCc2cc(C(C)C)no2)cc1OCCN1CCOCC1
[15]
  IC50: 6.12 µM (active)

## CCCC#Cc1ccc2c(c1)O[C@@H](CN(C)S(=O)(=O)c1cccc(F)c1)[C@@H](C)CN([C@H](C)CO)S2(=O)=O
[16]
  AC50: 7.8 µM (active)
[17]
  AC50: 12.4 µM (active)
[18]
  AC50: 10.8 µM (active)

## Cc1c(OCc2ccccc2)c(=O)ccn1CCNc1c2ccccc2nc2ccccc12
[19]
  IC50: 4 µM (active)
